Laboratory results from ChEMBL document CHEMBL5728228, “Inhibitors of cyclin-dependent kinases” (2021).
pIC50: −log10 of the molar value.

Test: Protein kinase assay (Condition B: Thiol-free Conditions): The IC50 profile of compounds was determined using one protein kinase in a customized, thiol free assay. […] Prior to testing, the 1×10−03 M stock solutions in column 2 of the master plates were subjected to a serial, semi-logarithmic dilution using 100% DMSO as a solvent. […] Column 1 and 7 were filled with 100% DMSO as controls. Subsequently, 2×10 microliter from each well of the serial diluted copy plates were aliquoted with a 96 channel pipettor into two identical sets of “compound dilution plates”. All plates were barcoded for automated identification and tracking purposes. […] All compounds were stored as powder until being solubilized in DMSO. Solubilized compounds were stored as 1×10−02 M/100% DMSO stock solutions. Prior to the assay process, 90 microliters of H2O were added to each well of a set of compound dilution plates. To minimize potential precipitation, the H2O was added to each plate only a few minutes before the transfer of the compound solutions into the assay plates. Each plate was shaken thoroughly, resulting in compound dilution plates with a final of 10% DMSO. For each assay, 5 microliters of solution from each well of the compound dilution plates/10% DMSO were transferred into the assay plate. The final volume of the assay was 50 μl. All compounds were tested at 10 final assay concentrations in the range from 1×10−05 M to 3×10−10 M, in singlicate. The final DMSO concentration in the reaction cocktails was 1% in all cases. A radiometric protein kinase assay (33PanQinase® Activity Assay) was used for measuring the kinase activity of the protein kinase. All kinase assays were performed in 96-well FlashPlates™ from PerkinElmer (Boston, Mass., USA) in a 50 microliter reaction volume. The reaction cocktail was pipetted in four steps in the following order: 20 microliter of assay buffer (standard buffer)·5 microliter of ATP solution (in H2O)·5 microliter of test compound (in 10% DMSO)·20 microliter enzyme/substrate mix. […] For all experiments labeled as “Thiol-free”, all glutathione was exchanged from protein preparations so as to be removed from the assay and final buffer conditions contained no thiol-containing reagents. This was done so there would be no interference with the key cysteines in the proteins of interest.

SMILES	pIC50
C=CC(=O)Nc1ccc(C(=O)N2CC[C@@H](Nc3ncc(Br)cn3)C2)cc1	> 7.00
C=CC(=O)Nc1ccc(C(=O)N2CC[C@@H](Nc3ncc(Cl)c(OC)n3)C2)cc1C	> 7.00
C=CC(=O)Nc1ccc(C(=O)N2CC[C@@H](Nc3ncc(Br)c(OC)n3)C2)cc1	> 7.00
CCC(=O)Nc1ccc(C(=O)N2CC[C@@H](Nc3ncc(Br)c(OC)n3)C2)cc1	> 7.00

The next lines start with the values.

pIC50	SMILES
> 7.00	C=CC(=O)Nc1ccc(C(=O)N2CC[C@@H](Nc3cc(OC)c(Cl)cn3)C2)cc1
> 7.00	C=CC(=O)Nc1ccc(C(=O)N2CC[C@@H](Nc3ncc(Cl)c(OC)n3)C2)cc1
> 7.00	C=CC(=O)N(C)c1ccc(C(=O)N2CC[C@@H](Nc3ncc(Cl)c(OC)n3)C2)cc1
